In patent US4226885A, “Guanylhydrazones and medicaments containing them” (Choay S.A., priority 1977, dated 1980):
Where two headings read alike, the source gives them in different places.

Experiments:
[1] = target: rat liver monoaminoxydase; experiment: I.M.A.O. activity: inhibition of rat liver monoaminoxydase (spectrophotometric, kynuramine as substratum); format: biochemical; conditions: 50% inhibition
Method: The inhibiting activity of the envisaged guanyl hydrazones in relation to rat liver monoaminoxydase was determined by means of a spectrophotometric method, using kynuramine as substratum.
The I.M.A.O. activity was determined for various concentrations of guanyl hydrazone. The concentrations for which one obtains 50% inhibition relate to the pI 50, which is calculated as follows: […]
For each concentration about ten experiments are carried out, from which the mean activity Yi is determined. Only concentrations giving a Yi between 15 and 85% of activity are retained.
Assume N concentrations Ci retained; to each Ci there correspond a certain number ni of experiments and a mean activity Yi.
Assume in all NT=Σni experiments.
(a) The equation of the straight line Yi =f (Ci) is calculated by the method of least squares.
To this straight line there are attached different statistic tests to express its validity, as straight line only.
Then the corresponding concentration is deduced for Y=50%.
(b) Statistical calculations permit evaluation of the legitimacy of the linear model. These calculations take account of all the points, that is to say NT experiments, whereas the straight line is determined from the mean activities only, which means that these calculations take account of the dispersion which affects every average.
(c) Calculation of the confidence interval for α=0.05.
The pI50 s of the compounds 1 to 7 appearing in Table I above were calculated by application of the method as just described; they have been listed in Table II below: […]

[2] = tested on: fibro-sarcomas induced by methyl cholanthrene, tumour cells in culture; experiment: Tumour culture: inhibition of multiplication of methyl cholanthrene-induced fibro-sarcoma cells in vitro; format: cell-based; conditions: Rattus norvegicus; for inhibition at 10 µM: 10^-5 molar; for inhibition at 1 µM: 10^-6 molar
Method: (§1) A supplementary study of the activity of these products upon the inhibition of growth of animal cells was effected by tumour culture. On fibro-sarcomas induced by methyl cholanthrene (O. Flandre et coll. C.R. Jour. biol. 1966. 160 152) the products were tested: upon tumour cells in culture "in vitro" and upon treated rats.
1. upon tumour cells in culture "in vitro" the results of the tested products are reported in Table IV below, which expresses the cellular count at the 72nd hour after sub-culture, in the presence of the substances to be studied.
The results are expressed in percentage of diminution of the number of cells in comparison with the control.
The determinations were effected with the products at three molar concentrations: 10^-4, 10^-5 and 10^-6.
This concerns fibro-sarcomas induced by methyl cholanthrene according to a technique described by O. FLANDRE, I. CIURANA, J. SECCHI and M. DAMON: Reports of the Sittings of the Biology Society, Volume 160, No. 1, 1966, page 152.
The products can be tested either upon tumour cells cultivated in vitro, or upon the rat treated by tumour cell injections either in situ or by intraperitoneal injection.
The preliminary experiments carried out with the substances according to the invention, tested on tumour cells cultivated in vitro, disclose a retardation of the cellular multiplication.

Lipidium sativum = experiment: Inhibition of the growth of the root meristem of Lipidium sativum (vegetable cells); format: in vivo; conditions: for inhibiting activity (root growth, in words): Lipidium sativum test
Method: The test of the inhibition of the growth of the root meristem of Lipidium sativum was used, which test is used to evaluate the cytostatic action of series of drugs. It consists in placing germinated grains of Lipidium sativum in 15 ml. of aqueous solution containing 1% of methyl cellulose, in which the guanyl hydrazones are placed in suspension.
After leaving in darkness for 24 hours at the temperature of 27° C., the elongation of the root in comparison with that of a control batch (Li Lipidium sativum grain in methyl cellulose medium) is determined.
The validity of the linear model was evaluated with the aid of test F: [formula]
In the example supplied, for the calculation of the confidence interval for α=0.05, one finds:
that is to say one has five chances per hundred, if one repeats another series of measurements, of finding a pI 50 outside this limit.

platelet aggregation = experiment: Platelet anti-aggregant action (BORN's method); format: cell-based, human or rabbit
Method: The determination of the platelet aggregability was effected according to BORN's method, using a LABINTEC aggregometer.
Firstly a platelet-rich plasma (or PRP) and next a platelet-poor plasma (or PPP or PDP) are prepared from human blood or rabbit's blood, and the apparatus is calibrated.
Then the aggregating power of the plasma (PRP) is determined in relation to the PDP in the presence and in the absence of guanyl hydrazone. Thus it is possible to determine the percentage of inhibition of platelet aggregation as a function of the concentration. The curves obtained permit of determining a pI 50. […]

[3] = tested on: fibro-sarcomas induced by methyl cholanthrene, tumour cells in culture; experiment: Tumour culture: inhibition of multiplication of methyl cholanthrene-induced fibro-sarcoma cells in vitro; format: cell-based; conditions: Rattus norvegicus, read-out: percentage of inhibition in comparison with the control; heading: percentage of inhibition in comparison with the control; B3 tumour culture, 10^-3 M
[4] = tested on: fibro-sarcoma induced by methyl cholanthrene; experiment: Development of a fibro-sarcoma induced by methyl cholanthrene in vivo in the rat; conditions: daily 50 mg./kg in two doses, over three months, vs untreated rats
Method: as §1
2. Inhibiting action upon the development of a fibro-sarcoma induced by methyl cholanthrene "in vivo" in the rat.

[5] = tested on: rat embryo cultures (muscle fragment); experiment: Culture in explants: mitotic index of rat embryo cultures; format: cell-based
Method: This concerns rat embryo cultures kept for at least 6 months (muscle fragment). The explants are placed in culture in plasma coagulum (cock plasma). The cultures are fed with nutrient medium (Hanx+embryonary extract+decomplemented calf foetus serum). 24 hours after placing in plasma coagulum, the product to be tested is added at different dilutions. The cultures are examined on the 4th day and the counting of the number of mitoses is effected in the growth zone of the explants. The percentage of each of the phases of the mitosis is determined for the whole (mitotic index).

Rat fibroblast cultures = experiment: Action upon cultures of trypsinised fibroblasts; format: cell-based; conditions: read-out: percentage of inhibition in comparison with the control, heading: percentage of inhibition in comparison with the control, 10^-4 M, 48 and 72 hours
Method: Rat fibroblast cultures are concerned and the strains have been maintained for several years.
For single-layer cultivation in Roux flasks, Trypsinisation at 0.25% detaches the cells from the flask on the one hand and from one another on the other hand.
The cells are distributed in lamellated tubes at the rate of 250,000 cells per ml., where they are deposited.
The products to be tested are introduced at different dilutions, and left to act for 48 and 72 hours.
Next, the counting of the cells is effected (10 fields for 5 blades) and the results obtained are compared with control tumours which have not received the product to be tested.

[6] = 72 h, 10^-4 molar, 72nd hour after sub-culture, read-out: percentage of diminution of the number of cells in comparison with the control
[7] = 72 h, 72nd hour after sub-culture, read-out: percentage of diminution of the number of cells in comparison with the control
[8] = 50% inhibition of root growth, 24 hours, 27° C., darkness, read-out: pI 50 (guanyl hydrazones) (converted)
[9] = platelet-rich plasma, human blood or rabbit's blood, Table V, read-out: PI50 (platelet aggregation) (converted)
[10] = phenoxyacetic acid corresponding to the numbered guanyl hydrazone, root growth, read-out: Corresponding phenoxyacetic acid pI 50 (converted)
[11] = concentration of 10^-4 mol, read-out: retardation of the cellular multiplication

Compound | pI 50 [1] | inhibition at 100 µM [2, 6] | inhibition at 10 µM [2, 7] | inhibition at 1 µM [2, 7] | IC50 (Lipidium sativum; [8]) | IC50 (platelet aggregation; [9]) | inhibiting activity (root growth, in words) (Lipidium sativum) | also measured
N=C(N)NN=CCOc1ccccc1Cl [Compound 2, o-chlorophenoxy acetaldehyde guanyl hydrazone] | 4.94 | 15.8% | 13.2% | 7.89% | 162 µM | 603 µM |  | 
O=C(O)COc1ccccc1Cl [2 (corresponding phenoxyacetic acid), reference compound] |  |  |  |  |  |  |  | IC50 (Lipidium sativum; [10]): 112 µM
N=C(N)NN=CCOc1ccccc1 [Compound 1] | 4.90 | 15.8% | 7.89% | 5.26% | 692 µM | 1200 µM |  | inhibition at 1000 µM [3]: ~25%
Cc1ccc(OCC=NNC(=N)N)cc1 [Compound 10, p-methyl phenoxy acetaldehyde guanyl hydrazone] |  | 25% | 23.7% | 0% | 58.9 µM | 813 µM |  | 
N=C(N)NN=CCOc1ccc(Br)cc1 [Compound 12] |  | 57.1% | 40.4% | 0% | 2.88 µM | 562 µM | great inhibiting activity | inhibition at 100 µM [2, 11]: > 30%; development of the tumours (weight estimations) [4]: clearly retarded
Cc1cccc(OCC=NNC(=N)N)c1 [Compound 9] |  | 32.1% | 13.2% | 10.5% | 26.3 µM | 692 µM | great inhibiting activity | inhibition at 100 µM [2, 11]: > 30%
Cc1ccccc1OCC=NNC(=N)N [Compound 8] |  | 10.7% | 7.89% | 0% | 38.9 µM | 525 µM | great inhibiting activity | 
N=C(N)NN=CCOc1ccc(F)cc1 [Compound 13] |  |  |  |  |  | 977 µM |  | 
N=C(N)NN=CCOc1cccc(Cl)c1 [Compound 3] | 4.70 | 31.6% | 26.3% | 0% | 33.9 µM | 490 µM | great inhibiting activity | inhibition at 100 µM [2, 11]: > 30%
COc1cccc(OCC=NNC(=N)N)c1 [Compound 6] | 5.16 | 18.4% | 12.6% | 0% | 191 µM |  |  | 
COc1ccccc1OCC=NNC(=N)N [Compound 5, o-methoxy phenoxy acetaldehyde guanyl hydrazone] | 4.94 | 5.26% | 2.63% | 0% | 224 µM | 1100 µM |  | 
COc1ccc(OCC=NNC(=N)N)cc1 [Compound 7] | 4.50 | 15.8% | 15.3% | 0% | 102 µM | 1380 µM |  | 
O=C(O)COc1ccccc1 [1 (corresponding phenoxyacetic acid), reference compound] |  |  |  |  |  |  |  | IC50 (Lipidium sativum; [10]): 631 µM
CC(C)c1ccccc1OCC=NNC(=N)N [Compound 11] |  | 78.6% | 42.1% | 18.4% | 39.8 µM |  | great inhibiting activity | inhibition at 100 µM [2, 11]: > 30%; mitotic index ([5]; 4th day, control culture 2.5%): 1.9%; number of mitoses at the metaphase level ([5]; vs control culture): significant reduction of the number of mitoses at the metaphase level; development of the tumours (weight estimations) [4]: clearly retarded; inhibition at 100 µM (Rat fibroblast cultures): ~100%
CC(=O)Oc1ccccc1C(=O)O [Lysine acetylsalicylate, reference compound] |  |  |  |  |  |  |  | IC50 (platelet aggregation; Platelet, read-out: PI50 (platelet aggregation)): 51300 µM
Cc1ccccc1OCC(=O)O [8 (corresponding phenoxyacetic acid), reference compound] |  |  |  |  |  |  |  | IC50 (Lipidium sativum; [10]): 11 µM
